test system: A. thermophilum; experiment: Sensitivity of A. thermophilum to selective agents; format: cell-based, Anaerocellum thermophilum; settings: selective agent in growth medium
Experimental: 5× Base Salts: 140.00 g/L NaCl, 17.50 g/L, MgSO4.7H2O, 13.50 g/L MgCl2.6H2O, 1.65 g/L KCl, 1.25 g/L NH4Cl, 0.70 g/L CaCl2.2H2O. Liquid complex cellobiose (CC) media (pH 6.8): 200 mL/L 5× Base salts, 1 mL/L 1000× Trace minerals, 100 μL/L 100 mM Na2WO4*2H2O, 50 μL/L Resazurin (5 mg/mL), 5 mL/L 10% w/v Yeast Extract, 50 mL/L 10% w/v Casein hydrolysate, 35 mL/L 10% w/v Cellobiose, 0.5 g/L Cysteine, 0.5g Na2S, 1 g/L NaHCO3, 1 mL/L 1M K2HPO4 buffer. Solid complex cellobiose (CC) media: 1× media +1% phytagel solution (Sigma Chemical Company, St. Louis, Mo.). CC plates containing 5-fluoroorotic acid (5-FOA): to ensure complete 5-FOA solvation, 1M NaOH is dripped into the solution until a murky consistency is reached at around pH 10, cysteine is then used to lower the pH to 7, where the solution turns transparent. Simvastatin plates: solid complex cellobiose plates with the indicated amount of simvastatin added. A. thermophilum is sensitive to 8 millimolar (mM) 5-FOA, 30 mM hygromycin, 8 micromolar (μM) simvastatin, and 50 μM apramycin.

Row | SMILES | concentration to which A. thermophilum is sensitive [µM]
1 | CCC(C)(C)C(=O)O[C@H]1C[C@@H](C)C=C2C=C[C@H](C)[C@H](CC[C@@H]3C[C@@H](O)CC(=O)O3)[C@H]21 [simvastatin] | 8
2 | CN[C@@H]1[C@@H](O[C@H]2O[C@H](CO)[C@@H](N)[C@H](O)[C@H]2O)OC2C[C@@H](N)[C@@H](O[C@H]3[C@H](O)[C@@H](O)[C@H](N)C[C@@H]3N)OC2[C@@H]1O (stereo partly drawn) [apramycin] | 50
3 | O=C(O)c1[nH]c(=O)[nH]c(=O)c1F [5-FOA, 5-fluoroorotic acid] | 8000

— patent US20110217740A1, “METHODS, MICROORGANISMS, AND COMPOSITIONS FOR PLANT BIOMASS PROCESSING” (University of Georgia Research, priority 2008, published 2011)
